# Assay results: patent US20130005698A1, “PHARMACEUTICAL FOR PREVENTING OR TREATING AN INNER EAR DISORDER” (University of Tsukuba, priority 2010, published 2013)
# Columns and labels:
# [1] = tested on: high-level noise exposure mice; assay: Evaluation of inner ear disorders in high-level noise exposure mice models (ABR threshold, cochlear hair cell loss); type: in vivo, B6 mice; details: for effect on increase of the auditory brainstem response (ABR) threshold caused by exposure to high-level noise: one week and two weeks after exposure
# Method: The test was carried out using high-level noise exposure mice. […] The auditory brainstem response (ABR) threshold was measured immediately before the exposure to high-level noise (initial value). At 1 week and 2 weeks after the exposure for 4 hours, the ABR was measured. For the prevention test, after measuring the ABR threshold at 2 weeks after, the inner ears were excised and fixed so as to allow pathological assessment of the loss of two types of hair cells, or inner and outer hair cells within the cochlea. The pathological assessment of the hair cell loss was carried out on the inner hair cells (one line of inner hair cells is represented by IHC) and outer hair cells (three lines of outer hair cells are represented by OHC 1, 2, and 3 from the inside to outside). The verification was carried out by analysis of variance (Fisher's test as post-hoc test). The mice were divided into two groups: a group exposed to high-level noise (control group, n=10), and a group exposed to high-level noise and administrated with fidarestat at a dose of 32 mg/kg/day (fidarestat-administrated group, n=10). The ABR and pathological assessment were carried out in 10 and 5 mice of each group, respectively. Fidarestat was administered mixed with the feed during the period from two days before to two weeks after the exposure to high-level noise. The mice were divided into five groups: a group exposed to high-level noise (control group, n=6), two group exposed to high-level noise and administrated with fidarestat at doses of 8 mg/kg/day or 32 mg/kg/day (fidarestat-administrated groups, n=6), a group exposed to high-level noise, and administrated with prednisolone at a dose of 1 mg/kg/day (prednisolone-administrated group, n=6), and a group exposed to high-level noise, and administrated of combination with prednisolone at a dose of 1 mg/kg/day and fidarestat at a dose of 32 mg/kg/day (combination use group, n=6). The ABR was carried out in 6 mice of each group. Fidarestat was administered mixed with the feed during the period immediately after to two weeks after the exposure to high-level noise. Prednisolone was orally administered immediately after the exposure to high-level noise.
# [2] = tested on: outer hair cells of the organ of Corti; assay: Gentamicin-induced loss of outer hair cells model (cultured organ of Corti); type: cell-based, SD rats; details: 48 hours culture; for loss rate of gentamicin-induced outer hair cells loss: control 50%
# Method: After excision of the cochlea from SD rats of 3-5 days old, lateral walls were removed, and then the basal turn of the organ of Corti was extracted. The organ of Corti was incubated overnight, and then cultured in culture solutions containing gentamicin ([…]) and fidarestat at different concentrations (0, 0.05, 0.1, 0.2, 0.5, 1, and 2 μM) for 48 hours. After culturing, the organ of corti was fixed with 4% paraformaldehyde. The culture solution was a Dulbecco's modified eagles medium (DMEM solution) containing 10% fetal bovine serum, HEPES ([…]), and penicillin G ([…]), and the organ was cultured at 37° C., 5% CO2, at a humidity of 95%.
compound,measurement,setting,value
"NC(=O)[C@@H]1C[C@]2(NC(=O)NC2=O)c2cc(F)ccc2O1 [fidarestat, (2S,4S)-6-fluoro-2′,5′-dioxospiro[chroman-4,4′-imidazolidine]-2-carboxamide]",therapeutic effect on ABR threshold increase compared to prednisolone-administrated group,[1]; fidarestat 32 mg/kg/day vs prednisolone 1 mg/kg/day,equivalent effect
same,effect on increase of the loss rate of cochlear outer hair cells,"[1]; prophylactic 32 mg/kg/day, two weeks after exposure to high-level noise",significantly inhibited
same,effect on increase of the auditory brainstem response (ABR) threshold caused by exposure to high-level noise,"[1]; prophylactic administration, 32 mg/kg/day mixed with feed from two days before to two weeks after exposure",significantly inhibited
same,effect on increase of the auditory brainstem response (ABR) threshold caused by exposure to high-level noise,"[1]; therapeutic administration, mixed with feed from immediately after to two weeks after exposure",significantly inhibited
same,loss rate of gentamicin-induced outer hair cells loss,[2]; fidarestat 0.1 μM,significantly reduced
same,outer hair cells survival,[2]; fidarestat 0.5 μM or more,75%
same,loss rate of gentamicin-induced outer hair cells loss,[2]; fidarestat 0.5 μM or more,25%
